Laboratory results reported in the NIST ThermoML archive (doi:10.1021/acs.jced.8b00591).

Experiment: xn = mol fraction of the nth substance listed
Settings: 101.3 kPa, Liquid; for viscosity: Falling or rolling sphere viscometry; for mass density: Vibrating tube method

CCCC[n+]1ccn(C)c1.O=S(=O)([N-]S(=O)(=O)C(F)(F)F)C(F)(F)F + COC(=O)OC
Settings | mass density [kg/m3] | viscosity [mPa·s]
288.15 K, x1 = 0.0898 | 1178.03 | 1.605
288.15 K, x1 = 0.1882 | 1250.71 | 3.207
288.15 K, x1 = 0.2749 | 1295.36 | 5.396
288.15 K, x1 = 0.3754 | 1334.26 | 9.186
288.15 K, x1 = 0.472 | 1362.15 | 14.3
288.15 K, x1 = 0.5745 | 1385.8 | 22.53
288.15 K, x1 = 0.673 | 1404.16 | 32.06
288.15 K, x1 = 0.7799 | 1419.88 | 44.52
288.15 K, x1 = 0.8948 | 1434.65 | 61.53
288.15 K, x1 = 1 | 1445.66 | 78.02
293.15 K, x1 = 0.0898 | 1172.07 | 1.473
293.15 K, x1 = 0.1882 | 1245.1 | 2.886
293.15 K, x1 = 0.2749 | 1289.95 | 4.762
293.15 K, x1 = 0.3754 | 1329.02 | 7.93
293.15 K, x1 = 0.472 | 1357.02 | 12.12
293.15 K, x1 = 0.5745 | 1380.77 | 18.87
293.15 K, x1 = 0.673 | 1399.14 | 26.3
293.15 K, x1 = 0.7799 | 1414.97 | 35.81
293.15 K, x1 = 0.8948 | 1429.79 | 48.74
293.15 K, x1 = 1 | 1440.84 | 61.32
298.15 K, x1 = 0.0898 | 1166.07 | 1.365
298.15 K, x1 = 0.1882 | 1239.48 | 2.611
298.15 K, x1 = 0.2749 | 1284.55 | 4.235
298.15 K, x1 = 0.3754 | 1323.78 | 6.922
298.15 K, x1 = 0.472 | 1351.9 | 10.39
298.15 K, x1 = 0.5745 | 1375.74 | 16.3
298.15 K, x1 = 0.673 | 1394.18 | 21.86
298.15 K, x1 = 0.7799 | 1410.07 | 29.38
298.15 K, x1 = 0.8948 | 1424.93 | 39.46
298.15 K, x1 = 1 | 1436.01 | 48.93
303.15 K, x1 = 0.0898 | 1160.05 | 1.263
303.15 K, x1 = 0.1882 | 1233.85 | 2.376
303.15 K, x1 = 0.2749 | 1279.14 | 3.797
303.15 K, x1 = 0.3754 | 1318.55 | 6.1
303.15 K, x1 = 0.472 | 1346.78 | 8.998
303.15 K, x1 = 0.5745 | 1370.71 | 14
303.15 K, x1 = 0.673 | 1389.23 | 18.59
303.15 K, x1 = 0.7799 | 1405.18 | 24.46
303.15 K, x1 = 0.8948 | 1420.08 | 32.86
303.15 K, x1 = 1 | 1431.21 | 39.84
308.15 K, x1 = 0.0898 | 1154.02 | 1.173
308.15 K, x1 = 0.1882 | 1228.22 | 2.176
308.15 K, x1 = 0.2749 | 1273.73 | 3.428
308.15 K, x1 = 0.3754 | 1313.32 | 5.404
308.15 K, x1 = 0.472 | 1341.67 | 7.885
308.15 K, x1 = 0.5745 | 1365.7 | 11.98
308.15 K, x1 = 0.673 | 1384.29 | 16.17
308.15 K, x1 = 0.7799 | 1400.31 | 20.58
308.15 K, x1 = 0.8948 | 1415.26 | 27.73
308.15 K, x1 = 1 | 1426.43 | 32.91
313.15 K, x1 = 0.0898 | 1147.98 | 1.095
313.15 K, x1 = 0.1882 | 1222.58 | 2.002
313.15 K, x1 = 0.2749 | 1268.32 | 3.113
313.15 K, x1 = 0.3754 | 1308.09 | 4.822
313.15 K, x1 = 0.472 | 1336.58 | 6.959
313.15 K, x1 = 0.5745 | 1360.7 | 10.3
313.15 K, x1 = 0.673 | 1379.37 | 14.01
313.15 K, x1 = 0.7799 | 1395.44 | 17.54
313.15 K, x1 = 0.8948 | 1410.45 | 23.58
313.15 K, x1 = 1 | 1421.66 | 27.56
318.15 K, x1 = 0.0898 | 1141.93 | 1.022
318.15 K, x1 = 0.1882 | 1216.94 | 1.849
318.15 K, x1 = 0.2749 | 1262.92 | 2.837
318.15 K, x1 = 0.3754 | 1302.88 | 4.332
318.15 K, x1 = 0.472 | 1331.49 | 6.189
318.15 K, x1 = 0.5745 | 1355.71 | 8.913
318.15 K, x1 = 0.673 | 1374.45 | 12.1
318.15 K, x1 = 0.7799 | 1390.59 | 15.2
318.15 K, x1 = 0.8948 | 1405.67 | 19.93
318.15 K, x1 = 1 | 1416.91 | 23.33
323.15 K, x1 = 0.0898 | 1135.85 | 0.958
323.15 K, x1 = 0.1882 | 1211.3 | 1.719
323.15 K, x1 = 0.2749 | 1257.51 | 2.6
323.15 K, x1 = 0.3754 | 1297.67 | 3.943
323.15 K, x1 = 0.472 | 1326.4 | 5.54
323.15 K, x1 = 0.5745 | 1350.73 | 7.757
323.15 K, x1 = 0.673 | 1369.55 | 10.53
323.15 K, x1 = 0.7799 | 1385.74 | 13.21
323.15 K, x1 = 0.8948 | 1400.88 | 17.01
323.15 K, x1 = 1 | 1412.17 | 19.97
328.15 K, x1 = 0.0898 | 1129.76 | 0.899
328.15 K, x1 = 0.1882 | 1205.65 | 1.588
328.15 K, x1 = 0.2749 | 1252.1 | 2.394
328.15 K, x1 = 0.3754 | 1292.46 | 3.59
328.15 K, x1 = 0.472 | 1321.33 | 4.994
328.15 K, x1 = 0.5745 | 1345.75 | 6.772
328.15 K, x1 = 0.673 | 1364.66 | 9.191
328.15 K, x1 = 0.7799 | 1380.9 | 11.54
328.15 K, x1 = 0.8948 | 1396.12 | 14.93
328.15 K, x1 = 1 | 1407.45 | 17.41
